From paper PMC4822259 (Parasites & Vectors, 2016)

These compounds were tested against T1, AgDOP2 (Anopheles gambiae, UniProt A0A1W5KQ45) (assay: IP-One HTRF IP1 accumulation, agonist stimulation, HEK-293).
T1 sequence (A0A1W5KQ45 1-495): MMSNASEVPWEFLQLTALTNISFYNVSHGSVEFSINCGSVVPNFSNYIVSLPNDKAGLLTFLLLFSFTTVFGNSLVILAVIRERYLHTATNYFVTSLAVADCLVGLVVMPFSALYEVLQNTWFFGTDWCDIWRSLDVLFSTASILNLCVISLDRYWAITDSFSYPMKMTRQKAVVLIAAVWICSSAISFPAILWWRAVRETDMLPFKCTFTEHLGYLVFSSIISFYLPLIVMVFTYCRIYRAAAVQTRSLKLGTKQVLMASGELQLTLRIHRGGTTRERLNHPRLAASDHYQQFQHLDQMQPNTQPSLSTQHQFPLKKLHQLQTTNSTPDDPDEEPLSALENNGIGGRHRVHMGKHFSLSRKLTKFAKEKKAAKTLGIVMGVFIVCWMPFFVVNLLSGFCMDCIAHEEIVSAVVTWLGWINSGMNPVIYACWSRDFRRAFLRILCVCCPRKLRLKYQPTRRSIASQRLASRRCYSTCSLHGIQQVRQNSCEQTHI
Type: cell-based

Structure (SMILES) | EC50 [nM]
NCCc1ccc(O)c(O)c1 [dopamine] | 4700 ± 400

These compounds were tested against T2, CqDOP2 (Culex quinquefasciatus, UniProt A0A0B5H0X6) (assay: IP-One HTRF IP1 accumulation, inhibition of dopamine response, HEK-293).
T2 construct: gene DOP2; receptor expressed in HEK-293 cells, from authors' previous work
T2 sequence (A0A0B5H0X6 1-479): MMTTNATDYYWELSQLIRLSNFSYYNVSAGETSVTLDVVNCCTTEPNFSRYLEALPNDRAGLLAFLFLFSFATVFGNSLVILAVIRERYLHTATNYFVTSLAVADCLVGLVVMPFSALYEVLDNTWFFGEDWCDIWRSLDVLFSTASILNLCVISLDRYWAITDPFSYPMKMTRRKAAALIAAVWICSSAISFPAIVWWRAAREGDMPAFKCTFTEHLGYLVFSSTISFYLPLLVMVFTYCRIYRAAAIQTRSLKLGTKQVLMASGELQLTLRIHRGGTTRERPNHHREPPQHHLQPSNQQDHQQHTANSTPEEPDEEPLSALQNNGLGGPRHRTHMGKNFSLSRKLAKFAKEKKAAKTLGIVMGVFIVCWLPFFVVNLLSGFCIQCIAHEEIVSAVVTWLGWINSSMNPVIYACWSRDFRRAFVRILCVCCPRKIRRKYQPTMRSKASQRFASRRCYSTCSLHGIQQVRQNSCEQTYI
Type: cell-based

Structure (SMILES) | IC50 [nM]
CN(C)CCC=C1c2ccccc2CCc2ccccc21 [Amitriptyline] | 80 ± 7
CCNC(=O)N1CCN(CCCC(c2ccc(F)cc2)c2ccc(F)cc2)CC1 [Amperozide] | 2600 ± 600
CN1CC2c3ccccc3Oc3ccc(Cl)cc3C2C1 (stereo not drawn) [Asenapine] | 20 ± 4
CN(C)CC/C=C1/c2ccccc2Sc2ccc(Cl)cc21 [Chlorprothixene] | 10 ± 2
CSc1ccc2c(c1)C(N1CCN(C)CC1)Cc1ccccc1S2 (stereo not drawn) [Methiothepin] | 10 ± 5
CN1CCc2cc(Cl)c(O)cc2[C@@H](c2ccccc2)C1 [SCH23390] | 8300 ± 1000

These compounds were tested against T1, AgDOP2 in the same assay as above.
Type: cell-based

Structure (SMILES) | IC50 [nM]
CN(C)CCC=C1c2ccccc2CCc2ccccc21 [Amitriptyline] | 230 ± 20
CCNC(=O)N1CCN(CCCC(c2ccc(F)cc2)c2ccc(F)cc2)CC1 [Amperozide] | 18800 ± 11000
CN1CC2c3ccccc3Oc3ccc(Cl)cc3C2C1 (stereo not drawn) [Asenapine] | 0.7 ± 0.08
CN(C)CC/C=C1/c2ccccc2Sc2ccc(Cl)cc21 [Chlorprothixene] | 400 ± 7
CSc1ccc2c(c1)C(N1CCN(C)CC1)Cc1ccccc1S2 (stereo not drawn) [Methiothepin] | 140 ± 8
CN1CCc2cc(Cl)c(O)cc2[C@@H](c2ccccc2)C1 [SCH23390] | 3600 ± 800

These compounds were tested against T3, AaDOP2 (Aedes aegypti, UniProt H6D5H2) in the same assay as above.
T3 construct: gene dop2; receptor expressed in HEK-293 cells, from authors' previous work
T3 sequence (H6D5H2 1-476): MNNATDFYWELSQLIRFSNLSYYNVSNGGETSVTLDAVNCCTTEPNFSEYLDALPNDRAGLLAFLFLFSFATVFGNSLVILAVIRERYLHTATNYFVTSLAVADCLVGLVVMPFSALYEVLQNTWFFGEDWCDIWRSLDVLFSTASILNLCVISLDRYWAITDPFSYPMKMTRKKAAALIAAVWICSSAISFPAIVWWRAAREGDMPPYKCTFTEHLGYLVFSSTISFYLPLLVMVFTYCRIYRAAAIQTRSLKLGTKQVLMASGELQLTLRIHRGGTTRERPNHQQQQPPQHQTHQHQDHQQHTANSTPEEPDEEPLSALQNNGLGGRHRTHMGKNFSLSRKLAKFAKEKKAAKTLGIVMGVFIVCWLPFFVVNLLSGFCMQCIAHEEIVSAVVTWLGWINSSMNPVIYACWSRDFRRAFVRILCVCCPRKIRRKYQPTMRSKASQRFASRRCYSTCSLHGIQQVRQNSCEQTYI
Type: cell-based

Structure (SMILES) | IC50 [nM]
CN(C)CCC=C1c2ccccc2CCc2ccccc21 [Amitriptyline] | 50 ± 3
CCNC(=O)N1CCN(CCCC(c2ccc(F)cc2)c2ccc(F)cc2)CC1 [Amperozide] | 5100 ± 1000
CN1CC2c3ccccc3Oc3ccc(Cl)cc3C2C1 (stereo not drawn) [Asenapine] | 3 ± 0.5
CSc1ccc2c(c1)C(N1CCN(C)CC1)Cc1ccccc1S2 (stereo not drawn) [Methiothepin] | 3 ± 1
CN1CCc2cc(Cl)c(O)cc2[C@@H](c2ccccc2)C1 [SCH23390] | 4700 ± 800
